*1 amine or outer side, *2 acyl side, *3 side chain or, on linkers, in order; H or OH if unused. Where a SMILES comes first, the peptide text is derived from it. Bridges are numbered along the chain shown (N, C = ends). Roman numbers before positions name the chains, in order. [ ]: non-standard residue; d: D form. Actinocin(9to1) = Cc1c2oc3c(C)ccc(C(=O)[*:1])c3nc-2c(C(=O)[*:2])c(N)c1=O; NMeV = CN[C@H](C(=O)O)C(C)C; Sar = CNCC(=O)O
Tests used:
Type in all cases: cell-based, human
acH2A.Z = test: ChIP-Seq with acH2A.Z antibody, occupancy at TSSs; conditions: for number of TSS with at least / greater than 2-fold drop in acH2A.Z occupancy: HL-60, 2 hr treatment, vs cells without treatment, 38,512 TSS compared; for acH2A.Z enrichment at the TSS, genome-wide / acH2A.Z peak intensity ratio, MYB locus (DMSO = 0.62, ActD = 1.0) / acH2A.Z peak intensity ratio, PU.1 locus (DMSO = 1.0) / acH2A.Z peak intensity ratio, c-MYC locus (DMSO = 1): HL-60, 2 hr; for acH2A.Z enrichment at the TSS, genome-wide: vs mock-treated (DMSO), FIG. 4C; for acH2A.Z peak intensity ratio, MYB locus (DMSO = 0.62, ActD = 1.0) / acH2A.Z peak intensity ratio, PU.1 locus (DMSO = 1.0) / acH2A.Z peak intensity ratio, c-MYC locus (DMSO = 1): [DMSO/DRB/ActD]
Excerpt: Two transcription inhibitors, Actinomycin D (ActD; RNA Polymerase I, II and III inhibitor) and 5,6-Dichlorobenzimidazole 1-β-D-ribofuranoside (DRB; RNAPII Inhibitor), were used at concentrations sufficient to block both RNA Polymerases II and III. Cells were synchronized with a double thymidine block and released into S Phase with ActD/DRB added. The rationale behind the use of ActD and DRB is: (i) to globally assess the effect of SPEARs suppression over a short time frame; (ii) to test effects resulting from the two different pathways triggered by ActD and DRB; and (iii) to take advantage of the reversibility of DRB treatment. […] Two hours after drug treatment, cells were crosslinked and subjected to ChIP-Seq analyses. […] Relative changes were then investigated in the footprints of unmodified H2A.Z and acH2A.Z in the vicinity of TSSs that result from DRB- and ActD-induced inhibition of SPEARs. The enrichments of ChIP-Seq signals for H2A.Z and acH2A.Z around 38,512 TSS (defined in the hg38 UCSC canonical gene table) following drug treatment were then compared with their occupancy in mock-treated (DMSO) cells. […] ActD-treated cells followed this pattern with a greater than 2-fold decrease in the levels of acH2A.Z at 6,283 TSS compared to untreated samples. […] For the c-MYC and PU1 loci, respectively, the ratios of control (DMSO) to drug treated H2A.Z peak intensities were: [DMSO/DRB/ActD]^c-MYC=1/0.76/0.67 and [DMSO/DRB/ActD]^PU.1=1/0.87/0.82; and the ratios of control (DMSO) to drug treated acH2A.Z peak intensities were: [DMSO/DRB/ActD]^c-MYC=1/0.62/0.36 and [DMSO/DRB/ActD]^PU.1=1.0/0.25/0.13. […] For MYB the ratios of control (DMSO) to drug treated acH2A.Z peak intensities are: [DMSO/DRB/ActD]^MYB=0.62/0.89/1.0, which corresponds to the increases in its SPEARs levels (FIG. 10C).
Double Thymidine block (early S-phase block) was carried out as described. Briefly, HL-60 cells were grown overnight to 70-80% confluence, washed twice with 1×PBS and cultured in DMEM (10% FCS)+2.5 mM Thymidine for 18 h (first block). Thymidine was washed out with 1×PBS and cells were grown in DMEM (10% FCS). After 8 hrs cells were cultured in the presence of thymidine for 18 h (second block) and then released as described. Synchrony was monitored by flow cytometry analysis of propidium iodide-stained cells using a LSRII flow cytometer (BD Biosciences) at the Harvard Stem Cell Institute/Beth Israel Deaconess Center flow cytometry facility.
DRB and Actinomycin D treatments were carried out as described. Briefly, after release from double thymidine block, HL-60 cells were treated with 100 μM of 5,6-Dichlorobenzimidazole 1-β-D-ribofuranoside (DRB) (Sigma Aldrich) or 0.8 μM of Actinomycin D (Sigma Aldrich) as indicated at each time point.
ChIP was performed as follows. Cells were crosslinked with 1% formaldehyde for 10 min at r.t. Pellets of 1×10^6 cells were used for immunoprecipitation and lysed for 10 minutes on ice and chromatin fragmented using a Branson 250 digital sonicator. Each ChIP was performed with 4 ug of antibody, incubated overnight at 4° C. A 50/50 slurry of protein A and protein G Dynabeads was used to capture enriched chromatin, which was then washed before reverse-crosslinking and proteinase K digestion at 65° C. AMPure XP beads were used to clean up and isolate ChIP DNA for subsequent library construction. The following antibodies were used for ChIP: H2A.Z (Abcam ab4174, lot GR3176820-1), acH2A.Z (Abcam ab18262, lot GR306397-1), TIP60 antibody; and IgG (Abcam ab171870). Fold enrichment was calculated using the formula 2^(−ΔΔCt(ChIP/non-immune serum)). Primer sets used for ChIP are listed in Table 2. nRIP was performed and crosslinked nuclei were collected as follows: 1. 60×10^6 HL-60 cells were crosslinked with 1% formaldehyde (formaldehyde solution, freshly made: 50 mM HEPES-KOH; 100 mM NaCl; 1 mM EDTA; 0.5 mM EGTA; 11% formaldehyde) for 10 min at room temperature. […]

H2A.Z = test: Western blot of total proteins, H2A.Z; conditions: HL-60, 2 hours treatment, FIG. 10A
Procedure: (§1) Whole-cell lysates from approximately 0.2×10^6 cells per each sample were separated on 12% SDS-PAGE gels and transferred to a nitrocellulose membrane. Immunoblots were stained overnight at 4° C. with the following primary antibodies: H2A.Z (1:2,000; Abcam ab4174), H2A.Z acetyl (K4+K7+K11) (1:2,000; Abcam ab18262) or TIP60 (1:1000; generous gift from Bruno Amati). All secondary horseradish peroxidase (HRP)-conjugated antibodies were diluted 1:5,000 and incubated for 1 hr at room temperature with TBST/5% BSA. Immuno-reactive proteins were detected using the Pierce® ECL system (Thermo Scientific #32106).

TIP60 = test: Western blot of total proteins, TIP60; conditions: HL-60, 2 hours treatment, FIG. 10A
Procedure: as §1

Cc1c2oc3c(C)ccc(C(=O)N[C@@H]4C(=O)N[C@H](C(C)C)C(=O)N5CCC[C@H]5C(=O)N(C)CC(=O)N(C)[C@@H](C(C)C)C(=O)O[C@@H]4C)c3nc-2c(C(=O)N[C@@H]2C(=O)N[C@H](C(C)C)C(=O)N3CCC[C@H]3C(=O)N(C)CC(=O)N(C)[C@@H](C(C)C)C(=O)O[C@@H]2C)c(N)c1=O [ActD, Actinomycin D] (I: T[dV]P[Sar][NMeV] / II: T[dV]P[Sar][NMeV]; ester I:1-I:C, II:1-II:C; linker I:N-II:N via Actinocin(9to1))
number of TSS with at least / greater than 2-fold drop in acH2A.Z occupancy (acH2A.Z): 6,283 TSS
acH2A.Z enrichment at the TSS, genome-wide (acH2A.Z): drastic reduction
acH2A.Z peak intensity ratio, MYB locus (DMSO = 0.62, ActD = 1.0) (acH2A.Z): 1.0
acH2A.Z peak intensity ratio, PU.1 locus (DMSO = 1.0) (acH2A.Z): 0.13
acH2A.Z peak intensity ratio, c-MYC locus (DMSO = 1) (acH2A.Z): 0.36
overall global content of H2A.Z (H2A.Z): not affected
overall global content of TIP60 (TIP60): not affected

OC[C@H]1O[C@@H](n2cnc3cc(Cl)c(Cl)cc32)[C@H](O)[C@@H]1O [DRB, 5,6-Dichlorobenzimidazole 1-β-D-ribofuranoside]
number of TSS with at least / greater than 2-fold drop in acH2A.Z occupancy (acH2A.Z): 3,394 TSS
acH2A.Z enrichment at the TSS, genome-wide (acH2A.Z): drastic reduction
acH2A.Z peak intensity ratio, MYB locus (DMSO = 0.62, ActD = 1.0) (acH2A.Z): 0.89
acH2A.Z peak intensity ratio, PU.1 locus (DMSO = 1.0) (acH2A.Z): 0.25
acH2A.Z peak intensity ratio, c-MYC locus (DMSO = 1) (acH2A.Z): 0.62
overall global content of H2A.Z (H2A.Z): not affected
overall global content of TIP60 (TIP60): not affected
